The results in this text go back to patent US11168073B2, “3,3-difluoroallylamines or salts thereof and pharmaceutical compositions comprising the same” (YUHAN CORPORATION, priority 2018, dated 2021).

Structures can show the parent of a compound that is named as a salt. Where two headings read alike, the source gives them in different places. Where only a bound is given, the exact number is not on record here.

What all share (type): biochemical
For one experiment, the target named is T1, recombinant human VAP-1 (Homo sapiens, UniProt Q16853).
T1 construct: purchased R&D systems
T1 sequence (Q16853 1-763): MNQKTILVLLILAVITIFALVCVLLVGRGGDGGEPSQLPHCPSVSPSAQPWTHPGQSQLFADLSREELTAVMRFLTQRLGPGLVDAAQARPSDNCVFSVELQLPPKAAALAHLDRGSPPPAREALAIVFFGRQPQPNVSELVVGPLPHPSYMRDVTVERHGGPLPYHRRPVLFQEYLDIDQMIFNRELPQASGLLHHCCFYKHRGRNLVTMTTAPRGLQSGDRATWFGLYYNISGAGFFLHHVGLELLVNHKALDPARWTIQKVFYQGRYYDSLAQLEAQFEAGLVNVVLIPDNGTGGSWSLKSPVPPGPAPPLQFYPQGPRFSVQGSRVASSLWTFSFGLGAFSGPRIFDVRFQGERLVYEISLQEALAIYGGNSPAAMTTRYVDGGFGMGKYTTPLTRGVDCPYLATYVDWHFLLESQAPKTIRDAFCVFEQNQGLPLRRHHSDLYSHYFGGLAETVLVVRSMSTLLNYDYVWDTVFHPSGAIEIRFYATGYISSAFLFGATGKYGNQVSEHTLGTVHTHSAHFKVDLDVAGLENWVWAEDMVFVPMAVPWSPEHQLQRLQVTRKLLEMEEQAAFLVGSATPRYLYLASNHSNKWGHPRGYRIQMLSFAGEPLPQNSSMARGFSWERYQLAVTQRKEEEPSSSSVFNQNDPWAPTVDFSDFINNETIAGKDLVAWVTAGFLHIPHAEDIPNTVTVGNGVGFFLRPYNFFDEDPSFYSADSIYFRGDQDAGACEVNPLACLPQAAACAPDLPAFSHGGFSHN
Nature of the experiment: Activity evaluation on recombinant human VAP-1 (Amplex Red/HRP-coupled hydrogen peroxide assay, benzylamine substrate). The settings on record: read-out: Inhibitory Activity (IC50, nM) human VAP-1. A digest of the protocol: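 Recombinant human VAP-1 in 50 mM sodium phosphate pH 7.4 preincubated 30 min at 37 °C with compound (8-point 1:3 series, <1% DMSO), then 1 mM benzylamine, 200 uM Amplex Red, 1 U/mL HRP added. H2O2-derived resorufin fluorescence (ex 544/em 590) followed 1–2 h; IC50 from four-parameter fit of rate inhibition.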

The target in experiment [1] is T2, recombinant human MAO-B (monoamine oxidase-B) (Homo sapiens, UniProt P27338).
T2 construct: purchased Sigma-Aldrich
T2 sequence (P27338 1-520): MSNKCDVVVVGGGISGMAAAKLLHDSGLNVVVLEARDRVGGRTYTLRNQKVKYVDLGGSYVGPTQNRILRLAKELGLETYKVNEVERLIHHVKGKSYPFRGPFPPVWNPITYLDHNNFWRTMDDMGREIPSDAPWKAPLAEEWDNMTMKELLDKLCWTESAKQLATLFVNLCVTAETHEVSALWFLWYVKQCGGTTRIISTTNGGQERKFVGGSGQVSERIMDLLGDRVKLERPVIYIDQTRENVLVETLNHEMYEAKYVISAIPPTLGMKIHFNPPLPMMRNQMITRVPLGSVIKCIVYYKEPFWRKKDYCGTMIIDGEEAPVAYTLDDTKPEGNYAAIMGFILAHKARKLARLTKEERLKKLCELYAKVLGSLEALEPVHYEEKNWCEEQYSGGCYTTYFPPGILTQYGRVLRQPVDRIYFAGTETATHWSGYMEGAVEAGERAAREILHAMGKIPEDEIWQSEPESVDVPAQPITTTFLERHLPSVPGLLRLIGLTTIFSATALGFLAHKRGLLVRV
Description: Activity evaluation on recombinant human MAO-B (Amplex Red/HRP-coupled assay, 1 mM benzylamine substrate). Particulars: read-out: Inhibitory Activity (IC50, nM) MAO-B. A digest of the protocol:
(§1)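 Enzyme activity was measured as fluorescence rate (ex 544, em 590 nm) from resorufin formed by HRP-coupled H2O2 oxidation of 200 uM Amplex Red. Compounds were first incubated 30 min at 37 °C with enzyme at pH 7.4; substrates were 0.5 mM tyramine (MAO-A), 1 mM benzylamine (MAO-B) and 1 mM putrescine (DAO).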

For experiment [2], the target named is T3, recombinant human MAO-A (monoamine oxidase-A) (Homo sapiens, UniProt P21397).
T3 construct: purchased Sigma-Aldrich
T3 sequence (P21397 1-527): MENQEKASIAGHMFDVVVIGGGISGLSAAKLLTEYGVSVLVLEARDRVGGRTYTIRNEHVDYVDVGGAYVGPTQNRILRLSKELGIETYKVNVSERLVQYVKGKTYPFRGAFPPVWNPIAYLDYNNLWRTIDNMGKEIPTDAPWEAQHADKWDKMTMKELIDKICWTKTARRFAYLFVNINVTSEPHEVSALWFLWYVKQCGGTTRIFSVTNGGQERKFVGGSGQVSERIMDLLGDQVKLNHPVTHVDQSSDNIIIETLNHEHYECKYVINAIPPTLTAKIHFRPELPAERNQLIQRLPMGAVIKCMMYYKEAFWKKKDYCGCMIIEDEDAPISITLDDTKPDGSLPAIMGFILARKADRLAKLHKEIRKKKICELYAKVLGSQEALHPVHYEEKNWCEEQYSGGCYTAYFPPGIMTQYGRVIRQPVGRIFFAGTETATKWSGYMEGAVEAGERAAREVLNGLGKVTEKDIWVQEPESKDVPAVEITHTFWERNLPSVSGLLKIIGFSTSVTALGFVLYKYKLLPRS
Description: Activity evaluation on recombinant human MAO-A (Amplex Red/HRP-coupled assay, 0.5 mM tyramine substrate). The settings on record: read-out: Inhibitory Activity (IC50, nM) MAO-A. A digest of the protocol:
as §1

For experiment [3], the target named is T4, recombinant human DAO (diamine oxidase) (Homo sapiens, UniProt P19801).
T4 construct: purchased R&D systems
T4 sequence (P19801 20-751): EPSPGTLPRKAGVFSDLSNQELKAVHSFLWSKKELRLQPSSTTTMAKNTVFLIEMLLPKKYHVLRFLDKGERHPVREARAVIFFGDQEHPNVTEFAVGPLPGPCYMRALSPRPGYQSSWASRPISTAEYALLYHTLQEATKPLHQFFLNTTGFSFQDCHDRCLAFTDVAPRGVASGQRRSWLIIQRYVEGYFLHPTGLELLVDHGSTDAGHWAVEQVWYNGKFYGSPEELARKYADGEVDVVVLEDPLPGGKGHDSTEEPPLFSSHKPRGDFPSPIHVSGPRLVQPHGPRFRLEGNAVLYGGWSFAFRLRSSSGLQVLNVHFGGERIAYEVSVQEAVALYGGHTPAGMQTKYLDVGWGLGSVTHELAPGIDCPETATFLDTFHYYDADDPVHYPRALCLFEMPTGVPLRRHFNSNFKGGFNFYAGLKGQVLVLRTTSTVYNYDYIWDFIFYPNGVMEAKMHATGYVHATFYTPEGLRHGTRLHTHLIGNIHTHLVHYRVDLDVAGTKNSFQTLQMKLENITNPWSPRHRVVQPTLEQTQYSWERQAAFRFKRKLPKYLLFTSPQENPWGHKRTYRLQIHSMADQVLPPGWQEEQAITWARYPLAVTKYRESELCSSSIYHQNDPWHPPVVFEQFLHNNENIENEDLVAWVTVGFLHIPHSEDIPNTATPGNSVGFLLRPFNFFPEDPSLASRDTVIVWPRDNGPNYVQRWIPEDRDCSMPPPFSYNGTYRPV
Nature of the experiment: Activity evaluation on recombinant human DAO (Amplex Red/HRP-coupled assay, 1 mM putrescine substrate). The settings on record: read-out: Inhibitory Activity (IC50, nM) DAO. A digest of the protocol:
as §1

[4] abbreviates: recombinant human VAP-1, 30 min preincubation at 37° C., 1 mM benzylamine.
The mark [5] stands for this setting: recombinant human VAP-1, benzylamine substrate.

The term IC50 denotes the concentration that gives 50% inhibition. As to `NCC(Cn1ncn(Cc2ccc(-c3cc(F)c4[nH]c(=O)ccc4c3)s2)c1=O)=C(F)F` [Example 137, 6-[5-[[1-[2-(aminomethyl)-3,3-difluoro-allyl]-5-oxo-1,2,4-triazol-4-yl]methyl]-2-thienyl]-8-fluoro-1H-quinolin-2-one Trifluoroacetate], the IC50 on recombinant human VAP-1 (setting [4]) was 0.3 nM; in experiment [1] (1 mM benzylamine), more than 100000 nM; in experiment [2] (0.5 mM tyramine), more than 100000 nM; in experiment [3] (1 mM putrescine) it was more than 100000 nM.
Regarding `Cc1cc(-c2cnn(C(C)C)c2)cnc1-n1cnn(CC(CN)=C(F)F)c1=O` [Example 252, 2-[2-(aminomethyl)-3,3-difluoro-allyl]-4-[5-(1-isopropylpyrazol-4-yl)-3-methyl-2-pyridyl]-1,2,4-triazol-3-one Trifluoroacetate], the IC50 is 1 nM on recombinant human VAP-1 (setting [5]), 35000 nM in experiment [1] (1 mM benzylamine substrate), more than 100000 nM in experiment [2] (0.5 mM tyramine substrate) and 17000 nM in experiment [3] (1 mM putrescine substrate).
On to `COc1ccc(-c2ccc(Cn3cnn(CC(CN)=C(F)F)c3=O)s2)cn1` [Example 113, 2-[2-(aminomethyl)-3,3-difluoro-allyl]-4-[[5-(6-methoxy-3-pyridyl)-2-thienyl]methyl]-1,2,4-triazol-3-one Trifluoroacetate], for which the IC50 is 0.6 nM at recombinant human VAP-1 (setting [4]), 2700 nM in experiment [1] (1 mM benzylamine), more than 100000 nM in experiment [2] (0.5 mM tyramine) and 19000 nM in experiment [3] (1 mM putrescine).
With `Cc1cc(-c2cnn(C(F)F)c2)cnc1-n1cnn(CC(CN)=C(F)F)c1=O` [Example 251, 2-[2-(aminomethyl)-3,3-difluoro-allyl]-4-[5-[1-(difluoromethyl)pyrazol-4-yl]-3-methyl-2-pyridyl]-1,2,4-triazol-3-one Trifluoroacetate], the IC50 is 1.5 nM on recombinant human VAP-1 (setting [5]), 18000 nM in experiment [1] (1 mM benzylamine substrate), more than 100000 nM in experiment [2] (0.5 mM tyramine substrate) and 19000 nM in experiment [3] (1 mM putrescine substrate).
For the molecule `NCC(Cn1ncn(Cc2ccc(-c3ccc4c(c3)OCO4)s2)c1=O)=C(F)F` [Example 126, 2-[2-(aminomethyl)-3,3-difluoro-allyl]-4-[[5-(1,3-benzodioxol-5-yl)-2-thienyl]methyl]-1,2,4-triazol-3-one Trifluoroacetate], the IC50 on recombinant human VAP-1 (setting [4]) is 0.5 nM; in experiment [1] (1 mM benzylamine), 760 nM; in experiment [2] (0.5 mM tyramine), more than 100000 nM; in experiment [3] (1 mM putrescine) it was more than 100000 nM.
Turning to `Cc1cc(-n2cnn(CC(CN)=C(F)F)c2=O)cnc1-c1ccc(S(C)(=O)=O)cc1` [Example 76, 2-[2-(aminomethyl)-3,3-difluoro-allyl]-4-[5-methyl-6-(4-methylsulfonylphenyl)-3-pyridyl]-1,2,4-triazol-3-one Trifluoroacetate], the IC50 at recombinant human VAP-1 (setting [4]) was 1.1 nM; in experiment [1] (1 mM benzylamine), 44000 nM; in experiment [2] (0.5 mM tyramine), more than 100000 nM; in experiment [3] (1 mM putrescine), 32 nM.
For `Cc1cc(-c2ccc(S(=O)(=O)N(C)C)cc2)cnc1-n1cnn(CC(CN)=C(F)F)c1=O` [Example 238, 4-[6-[1-[2-(aminomethyl)-3,3-difluoro-allyl]-5-oxo-1,2,4-triazol-4-yl]-5-methyl-3-pyridyl]-N,N-dimethyl-benzenesulfonamide trifluoroacetate], the IC50 was 0.14 nM at recombinant human VAP-1 (setting [5]), 1800 nM in experiment [1] (1 mM benzylamine substrate), more than 100000 nM in experiment [2] (0.5 mM tyramine substrate) and 310 nM in experiment [3] (1 mM putrescine substrate).
Taken in the same sequence, the figures for `CCn1cc(-c2cccc(-c3ccc(Cn4cnn(CC(CN)=C(F)F)c4=O)s3)c2)cn1` [Example 287, 2-[2-(aminomethyl)-3,3-difluoro-allyl]-4-[[5-[3-(1-ethylpyrazol-4-yl)phenyl]-2-thienyl]methyl]-1,2,4-triazol-3-one Trifluoroacetate] were 0.7 nM, 12100 nM, more than 100000 nM and 13900 nM.
In the case of `NCC(Cn1ncn(Cc2ccc(C#Cc3cnc4c(c3)OCCN4)s2)c1=O)=C(F)F` [Example 167, 2-[2-(aminomethyl)-3,3-difluoro-allyl]-4-[[5-[2-(3,4-dihydro-2H-pyrido[3,2-b][1,4]oxazin-7-yl)ethynyl]-2-thienyl]methyl]-1,2,4-triazol-3-one Ditrifluoroacetate], the IC50 on recombinant human VAP-1 (setting [4]) is 2.1 nM; in experiment [1] (1 mM benzylamine), 41000 nM; in experiment [2] (0.5 mM tyramine), more than 100000 nM; in experiment [3] (1 mM putrescine), more than 10000 nM.
Taken in the same sequence, the figures for `Cn1c(-c2ccc(Cn3cnn(CC(CN)=C(F)F)c3=O)s2)cnc1Cl` [Example 120, 2-[2-(aminomethyl)-3,3-difluoro-allyl]-4-[[5-(2-chloro-3-methyl-imidazol-4-yl)-2-thienyl]methyl]-1,2,4-triazol-3-one Trifluoroacetate] were 6 nM, more than 100000 nM, more than 100000 nM and more than 100000 nM.
Taken in the same sequence, the figures for `NCC(Cn1ncn(Cc2ccc(Br)s2)c1=O)=C(F)F` [Example 97, 2-[2-(aminomethyl)-3,3-difluoro-allyl]-4-[(5-bromo-2-thienyl)methyl]-1,2,4-triazol-3-one Trifluoroacetate] were 1.3 nM, 20000 nM, more than 100000 nM and more than 10000 nM.
